The target of test [1] is T1, KRas G12C (Homo sapiens, UniProt P01116, G12C).
T1 construct: NCI-11358 cells (ATCC CRL-5807) express KRas G12C; host or cells: NCI-H358
The test is described as follows: Cellular inhibition of KRas G12C measured by Phospho-ERK in NCI-11358 cells. The class given is cell-based. As to conditions: NCI-11358 cells (ATCC CRL-5807), 3 hours; read-out: Inhibition (IC50, pERK (Thr202/Tyr204) signal normalized with GAPDH).

Test [2] addresses T2, KRas G12C (Homo sapiens, UniProt P01116, C118S/C51S/C80L/G12C).
T2 construct: GDP-loaded K-Ras (1-169) G12C, C51S, C80L, C118S
Put plainly: KRas G12C Modification Assay (LCMS detection of covalent adduct). It is filed as binding. The settings on record: 5 μM concentration for 3 hours.

Molecules are shown by their SMILES. Where only a bound is given, the exact number is not on record here.

Take `C=CC(=O)N1CC(CN2C(=O)COc3cc(-c4onc5ccccc45)c(Cl)cc32)C1` [Example 29, 4-((1-acryloylazetidin-3-yl)methyl)-7-(benzo[c]isoxazol-3-yl)-6-chloro-2H-benzo[b][1,4]oxazin-3(4H)-one]: at KRas G12C [1], the IC50 is more than 1000 nM. For the same compound, the “POC (normalized percent of control, covalent modification of KRas G12C)” value at KRas G12C [2] is 25% of control.

Turning to `C=CC(=O)N1CC(CN2C(=O)C(CN3CC[C@H](OC)C3)Oc3cc(-c4cc(O)cc5ccccc45)c(Cl)cc32)C1` (stereo partly drawn) [Example 30, 4-((1-acryloylazetidin-3-yl)methyl)-6-chloro-7-(3-hydroxynaphthalen-1-yl)-2-(((S)-3-methoxypyrrolidin-1-yl)methyl)-2H-benzo[b][1,4]oxazin-3(4H)-one], at KRas G12C [1], the IC50 was not above 1000 nM. Also, the “POC (normalized percent of control, covalent modification of KRas G12C)” value on KRas G12C [2] is 93% of control.

Take `C=CC(=O)N1CC(CN2C(=O)COc3cc(-c4cc(O)cc5ccccc45)c(Br)cc32)C1` [Example 31, 4-((1-acryloylazetidin-3-yl)methyl)-6-bromo-7-(3-hydroxynaphthalen-1-yl)-2H-benzo[b][1,4]oxazin-3(4H)-one]: on KRas G12C [1], the IC50 was not above 1000 nM. On KRas G12C [2], the “POC (normalized percent of control, covalent modification of KRas G12C)” value is recorded as 88% of control.

For `C=CC(=O)N1CC(CN2C(=O)COc3cc(-c4cc(O)cc5ccccc45)c(C#N)cc32)C1` [Example 32, 4-((1-acryloylazetidin-3-yl)methyl)-7-(3-hydroxynaphthalen-1-yl)-3-oxo-3,4-dihydro-2H-benzo[b][1,4]oxazine-6-carbonitrile], the IC50 on KRas G12C [1] is more than 1000 nM. Besides, the “POC (normalized percent of control, covalent modification of KRas G12C)” value on KRas G12C [2] is 81% of control.

Regarding `C=CC(=O)N1CC(CN2C(=O)[C@H](CCN(C)C)Oc3cc(-c4cccc5ccccc45)c(Cl)cc32)C1` [Example 33, (S)-4-((1-acryloylazetidin-3-yl)methyl)-6-chloro-2-(2-(dimethylamino)ethyl)-7-(naphthalen-1-yl)-2H-benzo[b][1,4]oxazin-3(4H)-one], the IC50 at KRas G12C [1] is more than 1000 nM. Moreover, the “POC (normalized percent of control, covalent modification of KRas G12C)” value at KRas G12C [2] was 32% of control.

Regarding `C=CC(=O)N1CC(CN2C(=O)[C@H](CCN3CCOCC3)Oc3cc(-c4cc(O)cc5ccccc45)c(Cl)cc32)C1` [Example 34, (S)-4-((1-acryloylazetidin-3-yl)methyl)-6-chloro-7-(3-hydroxynaphthalen-1-yl)-2-(2-morpholinoethyl)-2H-benzo[b][1,4]oxazin-3(4H)-one], the IC50 at KRas G12C [1] is not above 1000 nM. For the same compound, on KRas G12C [2], the “POC (normalized percent of control, covalent modification of KRas G12C)” value is 93% of control.

With `C=CC(=O)N1CC(CN2C(=O)COc3cc(-c4ccccc4C(F)(F)F)c(Cl)cc32)C1` [Example 37, 4-((1-acryloylazetidin-3-yl)methyl)-6-chloro-7-(2-(trifluoromethyl)phenyl)-2H-benzo[b][1,4]oxazin-3(4H)-one], at KRas G12C [1], the IC50 is more than 1000 nM. Moreover, the “POC (normalized percent of control, covalent modification of KRas G12C)” value at KRas G12C [2] is given as 66% of control.

On to `C=CC(=O)N1CC(CN2C(=O)COc3cc(-c4[nH]nc(C)c4C)c(Cl)cc32)C1` [Example 38, 6-chloro-7-(3,4-dimethyl-1H-pyrazol-5-yl)-4-[(1-prop-2-enoylazetidin-3-yl)methyl]-1,4-benzoxazin-3-one], for which, on KRas G12C [1], the IC50 was more than 1000 nM. For the same compound, on KRas G12C [2], the “POC (normalized percent of control, covalent modification of KRas G12C)” value was 72% of control.

Values taken from patent US11932633B2, “KRas G12C inhibitors” (Mirati Therapeutics, Inc., priority 2018, dated 2024).
